Reference: ChEMBL document CHEMBL1201862, “PubChem BioAssay data set” (2004)
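96-well plates; 48 h exposure; 5 concentrations. Endpoints by linear interpolation between flanking doses. Not reached: highest tested concentration assigned. GI50 marks 50% less growth.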 Active and inactive are the calls of the source. Rule as the data show it: active = GI50 up to about 1.1 µM and inactive = higher.

Legend:
Assay in all cases: inhibition of tumour cell growth, NCI panel, 48 h
SK-OV-3 = test system: SK-OV-3
SN12C = test system: SN12C
K562 = test system: K562
UACC-257 = test system: UACC-257
786-0 = test system: 786-0
SNB-19 = test system: SNB-19
CAKI-1 = test system: CAKI-1
SR = test system: SR
NCI-H460 = test system: NCI-H460
NCI-H23 = test system: NCI-H23
OVCAR-8 = test system: OVCAR-8
HOP-18 = test system: HOP-18
ACHN = test system: ACHN
T47D = test system: T47D
PC-3 = test system: PC-3
MDA-N = test system: MDA-N
Hs-578T = test system: Hs-578T
BT-549 = test system: BT-549
MDA-MB-231 = test system: MDA-MB-231
DU-145 = test system: DU-145

Measured: GI50

CC1=C2[C@@H](c3ccccc3)C3C=CC2(C=C3C(F)(F)F)N(C(=O)NC2CCCCC2)C1=O (stereo partly specified)
inactive: SK-OV-3 > 100 µM | SN12C > 100 µM | K562 36.6 µM | UACC-257 36.2 µM | 786-0 78 µM | SNB-19 > 100 µM | CAKI-1 51.8 µM | SR 15.8 µM | NCI-H460 > 100 µM | NCI-H23 59.8 µM | OVCAR-8 > 100 µM | HOP-18 > 100 µM | ACHN > 100 µM

N/C(S)=N/N=C/c1ccc(O)cn1
inactive: T47D 4.72 µM | SN12C 5.35 µM | K562 4.99 µM | PC-3 7.1 µM | UACC-257 22.4 µM | MDA-N 8.45 µM | SNB-19 12.9 µM | Hs-578T 316 µM | SR 1.64 µM | BT-549 44.5 µM | NCI-H460 18.5 µM | MDA-MB-231 18.5 µM | NCI-H23 6.11 µM | OVCAR-8 3.51 µM | HOP-18 27.1 µM | DU-145 2.96 µM | ACHN 1.73 µM

COc1ccc(Nc2nc3ccccc3nc2-c2cccs2)cc1
inactive: SK-OV-3 40.5 µM | SN12C > 100 µM | K562 > 100 µM | UACC-257 > 100 µM | 786-0 75 µM | SNB-19 > 100 µM | CAKI-1 > 100 µM | SR 55 µM | NCI-H460 79.4 µM | NCI-H23 > 100 µM | OVCAR-8 > 100 µM | HOP-18 > 100 µM | ACHN > 100 µM

COc1cc2oc(-c3ccc(O)cc3)cc(=O)c2c(O)c1C1OC(CO)C(O)C(O)C1O (stereo unspecified)
inactive: SK-OV-3 > 100 µM | SN12C > 100 µM | K562 > 100 µM | UACC-257 > 100 µM | 786-0 > 100 µM | SNB-19 > 100 µM | CAKI-1 > 100 µM | SR > 100 µM | NCI-H460 > 100 µM | NCI-H23 > 100 µM | OVCAR-8 > 100 µM | HOP-18 > 100 µM | ACHN > 100 µM
